The numbers were not newly measured in PMC7503219 (International journal of hematology, 2019), which cites them from elsewhere.

The series relates to GATA-1low mice. The note with it: GATA-1 mouse model of PMF.

For the molecule `N#CCCN` [BAPN, β-aminopropionitrile], the “effect on myelofibrotic phenotype” value is reported as “reduced the pathogenesis of the myelofibrotic phenotype”.
